Results on five compounds are retold here after article PMC12559008 (Nature cancer, 2025).

Series [1] is described as follows: pKa measurement by pH titration. It counts as physicochemical. As to conditions: pH probe, titration of SM-AZO-PTX and SM-AZE-PTX.
A short description of series [2]: MTD dose stated for CPT comparators. As to conditions: mouse, in vivo, intravenous.
The conditions of series [3]: B6129SF1/J, mouse, in vivo, iv, 24 h.
The next series in a line: in vivo. The settings on record: B6129SF1/J, mouse, iv.
For series [4] the following is noted: mouse, in vivo.

In general, pKa refers to the negative logarithm of the acid dissociation constant. A higher pKa goes with a weaker acid or stronger base. For `C1CCCNCC1` [AZE, Azepane], the pKa in series [1] is approximately 6.98. On the same count and under the same terms, under `C1CCCNCCC1` [AZO, Azocane] stands 5.75.

In the case of `CC[C@@]1(O)C(=O)OCc2c1cc1n(c2=O)Cc2cc3ccccc3nc2-1` [Free CPT, Camptothecin], in series [2], the MTD worked out at 5 mg/kg. For orientation: half-life means how long it takes for the measured level to halve. Lower therefore signals fast loss. With `Nc1ccn([C@@H]2O[C@H](CO)[C@@H](O)C2(F)F)c(=O)n1` [GEM, gemcitabine], the “Injected GEM dose (%), Tumor” value in series [3] amounted to 0.21%. In addition, the half-life in “in vivo” is 23.4 ± 3.6 min. As for Taxol, in series [4], the “myelosuppression and neuropathy (sternums and dorsal root ganglia), in words” value was “severely damaged sternums and dorsal root ganglia tissues”.
